In patent publication US5447942A, “N-derivatives of (phenylethyl-β-ol) amine, a process for their preparation and pharamaceutical compositions containing the same” (Societe de Conseils de Recherches et d'Applications …, priority 1992, dated 1995):
Read-outs that look alike come from different tables or passages of the source.

Legend:
[1] = test system: isolated aorta contraction induced by phenylephrine; assay: inhibition of isolated aorta contraction induced by phenylephrine
[2] = test system: acetylcholine induced bronchoconstriction; assay: inhibition of acetylcholine induced bronchoconstriction, Konzett and Rossler method (Table B); assay type: in vivo, Male Hartley Guinea Pigs; conditions: IV; for inhibition in vivo at 4.6 µmol/kg / inhibition in vivo at 1.5 µmol/kg / inhibition in vivo at 0.42 µmol/kg / inhibition in vivo at 4.18 µmol/kg / inhibition in vivo at 4.8 µmol/kg / inhibition in vivo at 0.47 µmol/kg / inhibition in vivo at 0.13 µmol/kg / inhibition in vivo at 1.6 µmol/kg: Cavia porcellus
Protocol: Male Hartley Guinea Pigs (450-500 g) were anaesthetised with ethyl carbamate and prepared for recording bronchoconstriction according to Konzett and Rossler method (Naunym Schmiedebergers Arch. Exp. Path. Pharmakol (1940) 195, 71). To abolish spontaneous respiration, an injection IV of vecuronium bromide (2 mg/kg) was made. Bronchoconstriction was induced by IV injection of Acetylcholine and the animals received one dose of β agonist compound (IV) 5 minutes later.

α, receptor = assay: binding α receptor
β adrenoceptors = assay: radioligand binding studies in lung membrane (Table A, binding affinity)
Description: The results are summarised in Table A. Generally, the activity is better for the trans than the cis isomer.

[3] = 5 min, 0.42 μmol/kg, 5 mn, read-out: bronchoconstriction protection, score 5 mn
[4] = 0.25 h, 0.42 μmol/kg, 15 mn, read-out: bronchoconstriction protection, score 15 mn
[5] = 0.5 h, 0.42 μmol/kg, 30 mn, read-out: bronchoconstriction protection, score 30 mn
[6] = 5 min, 0.13 μmol/kg, 5 mn, read-out: bronchoconstriction protection, score 5 mn
[7] = 0.25 h, 0.13 μmol/kg, 15 mn, read-out: bronchoconstriction protection, score 15 mn
[8] = 0.5 h, 0.13 μmol/kg, 30 mn, read-out: bronchoconstriction protection, score 30 mn
[9] = 5 min, 1.6 μmol/kg, 5 mn, read-out: bronchoconstriction protection, score 5 mn
[10] = 0.25 h, 1.6 μmol/kg, 15 mn, read-out: bronchoconstriction protection, score 15 mn
[11] = 0.5 h, 1.6 μmol/kg, 30 mn, read-out: bronchoconstriction protection, score 30 mn

## COc1cc([C@H]2CC[C@@H](CNCC(O)c3ccc(O)c(CO)c3)O2)cc(OC)c1OC (relative stereo) [Example 2 (cis), 2-(3',4',5'-trimethoxyphenyl)-5-[N-[β-(3'-hydroxymethyl-4'-hydroxy-phenyl)-β-hydroxy-ethyl]-aminomethyl]-tetrahydrofuran]
[1]
  pA2, inhibitor of isolated aorta contraction induced by phenylephrine: 7.75
[2]; 4.6 μmol/kg
  bronchoconstriction protection, duration of action: 5 mn
[2]; 5 min, 4.6 μmol/kg, 5 mn, read-out: bronchoconstriction protection, score 5 mn
  inhibition in vivo at 4.6 µmol/kg: 20 to 50%
[2]; 0.25 h, 4.6 μmol/kg, 15 mn, read-out: bronchoconstriction protection, score 15 mn
  inhibition in vivo at 4.6 µmol/kg: < 20%
[2]; 0.5 h, 4.6 μmol/kg, 30 mn, read-out: bronchoconstriction protection, score 30 mn
  inhibition in vivo at 4.6 µmol/kg: < 20%
α, receptor
  Ki: 61 nM
β adrenoceptors
  Ki: 410 nM

## COc1cc([C@H]2CC[C@@H](CCNCC(O)c3ccc(O)c(CO)c3)O2)cc(OC)c1OC (relative stereo) [Example 14 (cis), 2-(3',4',5'-trimethoxyphenyl)-5-[N-[β-(3'-hydroxymethyl-4'-hydroxy-phenyl)-β-hydroxy-ethyl]-aminoethyl]-tetrahydrofuran]
[2]; 1.5 μmol/kg
  bronchoconstriction protection, duration of action: 30 mn
[2]; 5 min, 1.5 μmol/kg, 5 mn, read-out: bronchoconstriction protection, score 5 mn
  inhibition in vivo at 1.5 µmol/kg: > 75%
[2]; 0.25 h, 1.5 μmol/kg, 15 mn, read-out: bronchoconstriction protection, score 15 mn
  inhibition in vivo at 1.5 µmol/kg: 20 to 50%
[2]; 0.5 h, 1.5 μmol/kg, 30 mn, read-out: bronchoconstriction protection, score 30 mn
  inhibition in vivo at 1.5 µmol/kg: 20 to 50%
β adrenoceptors
  Ki: 1900 nM

## COc1cc([C@H]2CC[C@H](CCCNCC(O)c3ccc(O)c(CO)c3)O2)cc(OC)c1OC (relative stereo) [Example 15 (trans), 2-(3',4',5'-trimethoxyphenyl)-5-[-N-[β-(3'-hydroxymethyl-4'-hydroxy-phenyl)-β-hydroxy-ethyl]-aminopropyl]-tetrahydrofuran]
[2]; 0.42 μmol/kg
  bronchoconstriction protection, duration of action: 20 mn
[2]; 4.18 μmol/kg
  bronchoconstriction protection, duration of action: > 50 mn
[2]; [3]
  inhibition in vivo at 0.42 µmol/kg: > 75%
[2]; 5 min, 4.18 μmol/kg, 5 mn, read-out: bronchoconstriction protection, score 5 mn
  inhibition in vivo at 4.18 µmol/kg: > 75%
[2]; [4]
  inhibition in vivo at 0.42 µmol/kg: 50 to 75%
[2]; 0.25 h, 4.18 μmol/kg, 15 mn, read-out: bronchoconstriction protection, score 15 mn
  inhibition in vivo at 4.18 µmol/kg: > 75%
[2]; [5]
  inhibition in vivo at 0.42 µmol/kg: < 20%
[2]; 0.5 h, 4.18 μmol/kg, 30 mn, read-out: bronchoconstriction protection, score 30 mn
  inhibition in vivo at 4.18 µmol/kg: 50 to 75%
β adrenoceptors
  Ki: 760 nM

## OCc1cc(C(O)CNCC2CCC(c3ccccc3)O2)ccc1O (stereo not drawn) [Example 1, 2-phenyl-5-[N-[β-(3'-hydroxymethyl-4'-hydroxy-phenyl)-β-hydroxy-ethyl]aminomethyl]-tetrahydrofuran]
[2]; 4.8 μmol/kg
  bronchoconstriction protection, duration of action: 0 mn
[2]; 5 min, 4.8 μmol/kg, 5 mn, read-out: bronchoconstriction protection, score 5 mn
  inhibition in vivo at 4.8 µmol/kg: < 20%
[2]; 0.25 h, 4.8 μmol/kg, 15 mn, read-out: bronchoconstriction protection, score 15 mn
  inhibition in vivo at 4.8 µmol/kg: < 20%
[2]; 0.5 h, 4.8 μmol/kg, 30 mn, read-out: bronchoconstriction protection, score 30 mn
  inhibition in vivo at 4.8 µmol/kg: < 20%
β adrenoceptors
  Ki: 410 nM

## OCc1cc(C(O)CNCC2CCC(c3ccccc3F)O2)ccc1O (stereo not drawn) [Example 6, 2-(2'-fluorophenyl)-5-[N-[β-(3'-hydroxymethyl-4'-hydroxy-phenyl)-β-hydroxy-ethyl]-aminomethyl]-tetrahydrofuran]
[2]; 0.47 μmol/kg
  bronchoconstriction protection, duration of action: < 30 mn
[2]; 5 min, 0.47 μmol/kg, 5 mn, read-out: bronchoconstriction protection, score 5 mn
  inhibition in vivo at 0.47 µmol/kg: 50 to 75%
[2]; 0.25 h, 0.47 μmol/kg, 15 mn, read-out: bronchoconstriction protection, score 15 mn
  inhibition in vivo at 0.47 µmol/kg: 20 to 50%
[2]; 0.5 h, 0.47 μmol/kg, 30 mn, read-out: bronchoconstriction protection, score 30 mn
  inhibition in vivo at 0.47 µmol/kg: 20 to 50%
β adrenoceptors
  Ki: 1800 nM

## OCc1cc(C(O)CNCC2CCC(c3ccncc3)O2)ccc1O (stereo not drawn) [Example 12, 2-(4'-pyridyl)-5-[N-[β-(3'-hydroxymethyl-4'-hydroxy-phenyl)-β-hydroxy-ethyl]-aminomethyl]-tetrahydrofuran]
[2]; 0.13 μmol/kg
  bronchoconstriction protection, duration of action: > 30 mn
[2]; 0.42 μmol/kg
  bronchoconstriction protection, duration of action: > 30 mn
[2]; [6]
  inhibition in vivo at 0.13 µmol/kg: 50 to 75%
[2]; [3]
  inhibition in vivo at 0.42 µmol/kg: 50 to 75%
[2]; [7]
  inhibition in vivo at 0.13 µmol/kg: 20 to 50%
[2]; [4]
  inhibition in vivo at 0.42 µmol/kg: 50 to 75%
[2]; [8]
  inhibition in vivo at 0.13 µmol/kg: 20 to 50%
[2]; [5]
  inhibition in vivo at 0.42 µmol/kg: 20 to 50%
β adrenoceptors
  Ki: 350 nM

## OCc1cc(C(O)CNCCCC2CCC(c3ccccc3Cl)O2)ccc1O (stereo not drawn) [Example 16, 2-(2'-chlorophenyl)-5-[N-[β-(3'-hydroxymethyl-4'-hydroxy-phenyl)-β-hydroxy-ethyl]-aminopropyl]-tetrahydrofuran]
[2]; 1.6 μmol/kg
  bronchoconstriction protection, duration of action: > 15 mn
[2]; [9]
  inhibition in vivo at 1.6 µmol/kg: 20 to 50%
[2]; [10]
  inhibition in vivo at 1.6 µmol/kg: 20 to 50%
[2]; [11]
  inhibition in vivo at 1.6 µmol/kg: < 20%
β adrenoceptors
  Ki: 570 nM

## COc1cc(C2CC(CNCC(O)c3ccc(O)c(CO)c3)CO2)cc(OC)c1OC (centres unmarked) [Example 18]
[2]; 1.6 μmol/kg
  bronchoconstriction protection, duration of action: 30 mn
[2]; [9]
  inhibition in vivo at 1.6 µmol/kg: 50 to 75%
[2]; [10]
  inhibition in vivo at 1.6 µmol/kg: 20 to 50%
[2]; [11]
  inhibition in vivo at 1.6 µmol/kg: 20 to 50%
β adrenoceptors
  Ki: 1600 nM

## CC(C)(C)NCC(O)c1ccc(O)c(CO)c1 (centres unmarked) [Salbutamol, reference compound]
[2]; 0.13 μmol/kg
  bronchoconstriction protection, duration of action: 10 mn
[2]; 0.42 μmol/kg
  bronchoconstriction protection, duration of action: 30 mn
[2]; [6]
  inhibition in vivo at 0.13 µmol/kg: > 75%
[2]; [3]
  inhibition in vivo at 0.42 µmol/kg: > 75%
[2]; [7]
  inhibition in vivo at 0.13 µmol/kg: < 20%
[2]; [4]
  inhibition in vivo at 0.42 µmol/kg: > 75%
[2]; [8]
  inhibition in vivo at 0.13 µmol/kg: < 20%
[2]; [5]
  inhibition in vivo at 0.42 µmol/kg: < 20%
β adrenoceptors
  Ki: 2500 nM
